Laboratory results from article PMC11342128, “Gold(I) and gold(III) carbene complexes from the marine betaine norzooanemonin: inhibition of thioredoxin reductase, antiproliferative and antimicrobial activity” (RSC Medicinal Chemistry, 2024).

What was measured:
TrxR from E. coli = TrxR from E. coli (Escherichia coli, UniProt P0A9P4); test: Inhibition of isolated bacterial TrxR, DTNB-based assay; type: biochemical; parameters: purchased Sigma-Aldrich; details: compounds at 0.5 µM; n = 2; Table S13
Chain of TrxR from E. coli (P0A9P4 2-321): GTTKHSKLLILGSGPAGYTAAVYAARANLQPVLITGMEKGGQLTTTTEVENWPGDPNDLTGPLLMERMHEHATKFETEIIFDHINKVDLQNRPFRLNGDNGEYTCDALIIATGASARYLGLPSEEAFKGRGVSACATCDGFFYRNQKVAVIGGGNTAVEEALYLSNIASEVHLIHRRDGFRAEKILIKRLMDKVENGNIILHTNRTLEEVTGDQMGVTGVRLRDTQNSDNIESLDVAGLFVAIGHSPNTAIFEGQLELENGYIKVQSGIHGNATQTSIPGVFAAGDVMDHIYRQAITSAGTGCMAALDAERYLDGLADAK
Protocol: The inhibition of isolated TrxR from E. coli was determined for the selected monocarbene gold(I/III) complexes 2a–c and 4b–c using a DTNB-based assay (Table 3). […] The inhibition of bacterial TrxR for compound 2a was investigated in our previous report (Table 3).
S2.3. Inhibition of bacterial TrxR from E. coli
The TrxR (E. coli) inhibition assay was performed according to previously published procedures.[8] The assay is partly based on the procedure developed by Lu et al[9] and makes use of the reduction of DTNB (5,5′-dithiobis-(2-nitrobenzoic acid)). Solutions of E. coli TrxR (10.1 U/mL) and E. coli thioredoxin (Trx) (312 μg/mL) (both purchased from Sigma-Aldrich) were prepared in distilled water. Stock solutions of the test compounds (2 mM) were prepared in DMSO and serially diluted with TE buffer (Tris-HCl 50 mM, EDTA 1 mM, pH 7.5). 20 μL of these solutions or TE buffer without the test compounds (positive control) were mixed with the TrxR solution (10 μL), the Trx solution (10 μL) and 100 µl of NADPH (200 μM) in TE buffer in a well on a 96-well plate. As a blank control, 200 μM NADPH in TE buffer (100 μL) mixed with a DMSO / buffer mixture (40 μL) was used (final concentrations of DMSO: 0.5% v/v). The plate was incubated for 75 min at 25°C with moderate shaking. After incubation, 100 μL of a reaction mixture (TE buffer containing 200 μM NADPH and 5 mM DTNB) was added to each well to initiate the reaction. After thorough mixing, the formation of 5-TNB was monitored by a microplate reader at 405 nm in 35 s intervals (10 measurements). The values were corrected by subtraction of the blank solution absorption values. The increase in concentration of 5-TNB followed a linear trend (r2≥ 0.990) and the enzymatic activities were calculated as the gradients (increase in absorbance per second) thereof. […]
for each test compound, where the highest test compound concentration was used and the enzyme solution was replaced by TE buffer. The inhibition is presented as the mean IC50 values and standard deviations obtained in three independent experiments.
Table S13. Activity of TrxR from E. coli in presence of compounds at 0.5 µM (n = 2, n.d.= not

[1] = system: Vero E6 African green monkey kidney cells; test: Antiproliferative activity in non-tumour reference cell line; type: cell-based; details: for IC50: Vero E6 non-tumour reference cell line, SD in parentheses, n = 3; for Tumour selectivity: tumour cell lines in comparison to Vero E6: comparison of IC50 in tumour cell lines and non-tumour Vero E6
Protocol: (§1) The antiproliferative potential of the gold–NHC complexes was determined in A549 lung carcinoma cells, MDA-MB-231 breast cancer cells, MCF-7 breast adenocarcinoma cells, and HT-29 colon carcinoma cells (Table 1). Vero E6 African green monkey kidney cells served as a reference cell line to check for possible tumour selectivity. Auranofin (AF) was used as an established reference drug.[15,17] […]
(§2) S2.2. Cytotoxicity and Anticancer Studies
(§3) Cell culture and cytotoxicity
(§4) Cell lines were sourced from DSMZ (German Collection of Microorganisms and Cell Cultures GmbH) and maintained through standard procedures in Dulbecco's Modified Eagle Medium (DMEM) supplemented with 10% fetal calf serum and 50 mg/L gentamycin. Antiproliferative effects were assessed using a well-established assay protocol. In brief, 100 μL volumes of A549 cells (13,243 cells per mL), HT-29 cells (14,657 cells per mL), MDA-MB-231 cells (6,613 cells per mL), or MCF-7 cells (6,917 cells per mL) were transferred into the wells of 96-well plates and incubated at 37°C/5% CO2 for 72 […]
(§5) Freshly prepared stock solutions of the compounds in DMSO were diluted with the respective cell culture medium to achieve graded concentrations (final concentration of DMSO: 0.1% v/v). After 72 hours (A549, HT-29) or 96 hours (MCF-7, MDA-MB-231) of exposure, the cell biomass was assessed through crystal violet staining, and the IC50 value was determined as the concentration causing 50% inhibition of cell proliferation compared to an untreated control. Results were calculated as the mean values of three independent experiments.

[2] = system: MDA-MB-231 breast cancer cells; test: Antiproliferative activity, crystal violet assay; type: cell-based; details: 96 h exposure, SD in parentheses, n = 3
Protocol: as §1, §2, §3, §4, §5

[3] = system: A549 lung carcinoma cells; test: Antiproliferative activity, crystal violet assay; type: cell-based; details: 72 h exposure, SD in parentheses, n = 3
Protocol: as §1, §2, §3, §4, §5

[4] = system: HT-29 colon carcinoma cells; test: Antiproliferative activity, crystal violet assay; type: cell-based; details: 72 h exposure, SD in parentheses, n = 3
Protocol: as §1, §2, §3, §4, §5

[5] = system: MCF-7 breast adenocarcinoma cells; test: Antiproliferative activity, crystal violet assay; type: cell-based; details: 96 h exposure, SD in parentheses, n = 3
Protocol: as §1, §2, §3, §4, §5

[6] = system: Acinetobacter baumannii DSM30007; test: Antibacterial activity (MIC, curve fitting); type: cell-based; details: Table S12; ± standard error of the mean
Protocol: (§6) The antibacterial activity of all gold complexes was assessed against six pathogenic bacterial strains, including two Gram-positive species, i.e. Enterococcus faecium and methicillin-resistant Staphylococcus aureus (MRSA), and four Gram-negative species, i.e. Acinetobacter baumannii, Escherichia coli, Klebsiella pneumoniae, and Pseudomonas aeruginosa. Minimum inhibitory concentrations (MICs) were determined using a curve-fitting technique.
(§7) S2.1. Antibacterial Studies
(§8) Bacterial cultures were prepared by overnight aerobic incubation at 37 °C. Gram-negative strains were cultivated in Müller Hinton broth supplemented with 1% glucose at pH 7.2, while Gram-positive strains were grown in Trypticase soy yeast extract medium (TSY) with a composition of 30 g/l trypticase soy broth, 3 g/l yeast extract, and pH 7.2. The cultures were adjusted to an OD600 of 0.001, resulting in a final starting OD600 of 0.0005 for the subsequent tests. For testing, 25 μL of the prepared culture was combined with 25 μL of serially diluted test compounds in 384 well plates, following established protocols for different strains. Screening was performed at compound concentrations of 0.5, 5, and 50 µM, and for selected compounds, growth inhibition curves were recorded using DMSO stock solutions […]
(§9) Positive control compounds, namely linezolid (for MRSA strains), ciprofloxacin (for E. faecium and E. coli), and amikacin (for P. aeruginosa), were included. The maximum DMSO concentration in the assay […]
(§10) After an 18-hour incubation at 37 °C under moist conditions, the optical density at 600 nm was measured using a Fusion Universal Microplate Analyser (Perkin–Elmer, Waltham, USA). The minimum inhibitory concentration (MIC) values, representing the […]
(§11) fitting with Sigma Plot. The bacterial strains used included Gram-negative strains: Escherichia coli (DSM 1116), A. baumannii (DSM30007), K. pneumoniae (DSM111678), and Pseudomonas aeruginosa PA7 (DSM 24068); and Gram-positive strains: E. faecium (DSM20477) and Staphylococcus aureus MRSA

[7] = system: Pseudomonas aeruginosa DSM 24068; test: Antibacterial activity (MIC, curve fitting); type: cell-based; details: Table S12; ± standard error of the mean
Protocol: as §6, §7, §8, §9, §10, §11

[8] = system: methicillin-resistant Staphylococcus aureus DSM 11822; test: Antibacterial activity (MIC, curve fitting); type: cell-based; details: Table S12; ± standard error of the mean
Protocol: as §6, §7, §8, §9, §10, §11

[9] = system: Enterococcus faecium DSM20477; test: Antibacterial activity (MIC, curve fitting); type: cell-based; details: Table S12; ± standard error of the mean
Protocol: as §6, §7, §8, §9, §10, §11

COC(=O)c1cn(C)[c]([Au-]([Cl])([Cl])[c]2n(C)cc(C(=O)OC)[n+]2C)[n+]1C.O=S(=O)([O-])C(F)(F)F [5b]
TrxR activity, % of control (TrxR from E. coli): 90.8 % of control
IC50 [1]: > 100 µM
Tumour selectivity: tumour cell lines in comparison to Vero E6 [1]: clear preference for the tumour cell lines
IC50 [2]: 14.8 µM
IC50 [3]: 3.35 µM
IC50 [4]: 18.6 µM
IC50 [5]: 20 µM
MIC, A. baumannii [6]: > 100 µM
MIC, P. aeruginosa [7]: > 100 µM
MIC, MRSA [8]: > 100 µM
MIC, E. faecium [9]: > 100 µM

CCOC(=O)c1cn(C)[c]([Au-]([Cl])([Cl])[c]2n(C)cc(C(=O)OCC)[n+]2C)[n+]1C.F[B-](F)(F)F [5c]
TrxR activity, % of control (TrxR from E. coli): 93.5 % of control
IC50 [1]: 30.8 µM
Tumour selectivity: tumour cell lines in comparison to Vero E6 [1]: clear preference for the tumour cell lines
IC50 [2]: 2.33 µM
IC50 [3]: 0.89 µM
IC50 [4]: 4.29 µM
IC50 [5]: 3.91 µM
MIC, A. baumannii [6]: > 100 µM
MIC, P. aeruginosa [7]: > 100 µM
MIC, MRSA [8]: 23.15 ± 0 µM
MIC, E. faecium [9]: > 100 µM

Cn1cc(C(=O)O)[n+](C)[c]1[Au-]([Cl])([Cl])[c]1n(C)cc(C(=O)O)[n+]1C.[Cl-] [5a]
TrxR activity, % of control (TrxR from E. coli): 91.6 % of control
IC50 [1]: > 100 µM
IC50 [2]: > 100 µM
IC50 [3]: > 100 µM
IC50 [4]: > 100 µM
IC50 [5]: > 100 µM
MIC, A. baumannii [6]: > 100 µM
MIC, P. aeruginosa [7]: > 100 µM
MIC, MRSA [8]: > 100 µM
MIC, E. faecium [9]: > 100 µM
